The values that follow come from publication PMC11491346, “Molecular insights and inhibitory dynamics of flavonoids in targeting Pim-1 kinase for cancer therapy” (Frontiers in Pharmacology, 2024).

Chain of Pim-1 kinase (P11309 whole entry): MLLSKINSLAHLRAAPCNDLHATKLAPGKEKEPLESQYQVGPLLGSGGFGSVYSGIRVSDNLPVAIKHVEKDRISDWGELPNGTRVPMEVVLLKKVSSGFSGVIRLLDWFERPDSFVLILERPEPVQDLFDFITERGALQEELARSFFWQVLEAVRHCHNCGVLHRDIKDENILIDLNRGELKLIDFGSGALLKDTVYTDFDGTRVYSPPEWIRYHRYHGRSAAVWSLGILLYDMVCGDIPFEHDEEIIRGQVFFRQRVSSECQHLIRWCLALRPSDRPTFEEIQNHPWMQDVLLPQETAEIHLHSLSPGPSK

One assay addresses Pim-1 kinase (Homo sapiens, UniProt P11309). As to the kind of experiment: luminescence-based kinase assay (ADP to ATP, Ultra-Glo Luciferase), Pim-1 assay. The class given is biochemical. To be noted: Figures 10, 11 and 13. From the text: Enzyme activity was quantified using a luminescence-based kinase assay, which tracks the conversion of ADP to ATP, subsequently producing light via Ultra-Glo™ Luciferase. This luminescence is indicative of ADP levels and thus, enzyme activity. This method is particularly effective for analyzing the influence of various chemicals on different kinases, serving both initial screenings and specificity profiling.
The inhibitory concentration (IC50) values, expressed in micromolar (μM), were obtained from the Pim-1 assay. These values were converted to their corresponding negative logarithmic scale (pIC50) to facilitate a linear comparison using the following formula: pIC50=−log10 IC50 in M Where IC50 values were first converted from μM to molar (M) units before logarithmic transformation. Pulling force values, measured in pN, were sourced from the SMD experiments.
Take `O=c1cc(-c2ccccc2)oc2ccc(O)cc12` [6-Hydroxyflavone]: the “class as Pim-1 kinase inhibitor (in words)” value is “could not inhibit Pim-1 kinase activity”.

Consider `O=c1cc(-c2ccccc2)oc2cccc(O)c12` [5-Hydroxyflavone], for which the “class as Pim-1 kinase inhibitor (in words)” value is listed as “could not inhibit Pim-1 kinase activity”.

Still in this assay, the particulars now being: Figures 10, 11 and 13; listed as 7-ydroxyflavone.
With `O=c1cc(-c2ccccc2)oc2cc(O)ccc12` [7-Hydroxyflavone], the “class as Pim-1 kinase inhibitor (in words)” value is reported as “could not inhibit Pim-1 kinase activity”.

The assay is the same for the next values; noted with them: in vitro enzyme inhibition; read-out: Pim-1 kinase inhibitory activity IC50.
As usually defined, the IC50 is the midpoint of a concentration-inhibition curve. `O=c1c(O)c(-c2ccccc2)oc2cc(O)cc(O)c12` [Compound 8, Galangin]: the IC50 was 1.81 µM.

For `O=c1cc(-c2ccc(O)c(O)c2)oc2cc(O)cc(O)c12` [Compound 11], the IC50 was determined as 4.63 µM.

On to `O=c1cc(-c2ccccc2)oc2cc(O)cc(O)c12` [Compound 6], for which the IC50 amounted to 5.33 µM.

In the case of `O=c1c(O)c(-c2ccccc2)oc2ccccc12` [Compound 4, 3-Hydroxyflavone], the IC50 was determined as 35.1 µM.

Turning to `O=c1cc(-c2ccccc2)oc2cc(O)c(O)c(O)c12` [Compound 7], the IC50 was determined as 5.65 µM.

Take `O=c1c(O)c(-c2ccc(O)cc2)oc2cc(O)cc(O)c12` [Compound 9, Kaempferol]: the IC50 came to 1.78 µM.

`O=c1cc(-c2ccc(O)cc2)oc2cc(O)cc(O)c12` [Compound 10]: the IC50 came out at 5.28 µM.
